Source: ChEMBL document CHEMBL3217627, “Designing glucokinase activators with reduced hypoglycemia risk: discovery of N,N-dimethyl-5-(2-methyl-6-((5-methylpyrazin-2-yl)-carbamoyl)benzofuran-4-yloxy)pyrimidine-2-carboxamide as a clinical candidate for the treatment of type 2 diabetes mellitus” (Medchemcomm, 2011)
In brackets after ≈: the same amount, converted by molar mass.

Columns and labels:
[1] = Intrinsic clearance in human liver microsomes; type: ADME; conditions: read-out: CLH
[2] = Kinetic solubility of the compound; type: physicochemical; conditions: read-out: Kinetic_solubility
hERG (KCNH2) = hERG (KCNH2) (Homo sapiens, UniProt Q12809); experiment: Inhibition of dofetilide binding to human ERG at 10 uM relative to control; conditions: probe dofetilide
[3] = Passive permeability across RRCK cells; type: ADME, cell-based, Canis lupus familiaris, MDCKII-LE; conditions: dog, MDCK; read-out: permeability
Hexokinase-4 [4] = target: T1, Hexokinase-4 (Homo sapiens, UniProt P35557)
T1 sequence (P35557 whole entry): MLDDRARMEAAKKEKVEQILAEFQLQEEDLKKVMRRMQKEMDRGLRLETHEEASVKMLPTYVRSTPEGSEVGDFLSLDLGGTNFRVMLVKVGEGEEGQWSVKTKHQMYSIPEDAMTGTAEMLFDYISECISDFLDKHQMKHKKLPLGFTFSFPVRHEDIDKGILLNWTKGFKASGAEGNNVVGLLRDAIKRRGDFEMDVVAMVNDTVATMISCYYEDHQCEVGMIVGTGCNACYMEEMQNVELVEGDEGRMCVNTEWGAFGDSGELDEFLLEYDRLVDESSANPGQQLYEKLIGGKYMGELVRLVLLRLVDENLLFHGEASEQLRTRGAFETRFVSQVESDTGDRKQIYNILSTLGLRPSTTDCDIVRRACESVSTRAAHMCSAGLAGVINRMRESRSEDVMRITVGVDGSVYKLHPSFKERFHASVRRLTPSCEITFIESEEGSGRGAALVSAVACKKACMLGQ
Description: Activation of recombinant human glucokinase assessed as formation of glucose-6-phosphate by G6PDH/NADP coupled assay

[5] = target: Voltage-gated inwardly rectifying potassium channel KCNH2 (Homo sapiens, UniProt Q12809); experiment: Inhibition of dofetilide binding to human ERG
Hexokinase-4 [6] = target: T2, Hexokinase-4 (Rattus norvegicus, UniProt P17712); experiment: Activation of rat glucokinase
T2 sequence (P17712 whole entry): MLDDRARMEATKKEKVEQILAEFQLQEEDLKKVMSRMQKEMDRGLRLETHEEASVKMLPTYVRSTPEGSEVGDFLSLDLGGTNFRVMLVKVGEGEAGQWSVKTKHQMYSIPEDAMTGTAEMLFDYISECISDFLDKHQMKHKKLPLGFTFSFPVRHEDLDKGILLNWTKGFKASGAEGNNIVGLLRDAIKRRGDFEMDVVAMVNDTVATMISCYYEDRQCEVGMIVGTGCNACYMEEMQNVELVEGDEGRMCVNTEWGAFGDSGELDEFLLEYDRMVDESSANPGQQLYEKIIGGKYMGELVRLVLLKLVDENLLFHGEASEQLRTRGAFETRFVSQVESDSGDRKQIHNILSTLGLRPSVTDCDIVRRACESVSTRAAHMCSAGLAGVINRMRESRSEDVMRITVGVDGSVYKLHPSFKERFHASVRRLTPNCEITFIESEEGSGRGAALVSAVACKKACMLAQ

[7] = Selectivity ratio of EC50 for rat glucokinase to EC50 for human glucokinase

Chain of hERG (KCNH2) (Q12809 whole entry): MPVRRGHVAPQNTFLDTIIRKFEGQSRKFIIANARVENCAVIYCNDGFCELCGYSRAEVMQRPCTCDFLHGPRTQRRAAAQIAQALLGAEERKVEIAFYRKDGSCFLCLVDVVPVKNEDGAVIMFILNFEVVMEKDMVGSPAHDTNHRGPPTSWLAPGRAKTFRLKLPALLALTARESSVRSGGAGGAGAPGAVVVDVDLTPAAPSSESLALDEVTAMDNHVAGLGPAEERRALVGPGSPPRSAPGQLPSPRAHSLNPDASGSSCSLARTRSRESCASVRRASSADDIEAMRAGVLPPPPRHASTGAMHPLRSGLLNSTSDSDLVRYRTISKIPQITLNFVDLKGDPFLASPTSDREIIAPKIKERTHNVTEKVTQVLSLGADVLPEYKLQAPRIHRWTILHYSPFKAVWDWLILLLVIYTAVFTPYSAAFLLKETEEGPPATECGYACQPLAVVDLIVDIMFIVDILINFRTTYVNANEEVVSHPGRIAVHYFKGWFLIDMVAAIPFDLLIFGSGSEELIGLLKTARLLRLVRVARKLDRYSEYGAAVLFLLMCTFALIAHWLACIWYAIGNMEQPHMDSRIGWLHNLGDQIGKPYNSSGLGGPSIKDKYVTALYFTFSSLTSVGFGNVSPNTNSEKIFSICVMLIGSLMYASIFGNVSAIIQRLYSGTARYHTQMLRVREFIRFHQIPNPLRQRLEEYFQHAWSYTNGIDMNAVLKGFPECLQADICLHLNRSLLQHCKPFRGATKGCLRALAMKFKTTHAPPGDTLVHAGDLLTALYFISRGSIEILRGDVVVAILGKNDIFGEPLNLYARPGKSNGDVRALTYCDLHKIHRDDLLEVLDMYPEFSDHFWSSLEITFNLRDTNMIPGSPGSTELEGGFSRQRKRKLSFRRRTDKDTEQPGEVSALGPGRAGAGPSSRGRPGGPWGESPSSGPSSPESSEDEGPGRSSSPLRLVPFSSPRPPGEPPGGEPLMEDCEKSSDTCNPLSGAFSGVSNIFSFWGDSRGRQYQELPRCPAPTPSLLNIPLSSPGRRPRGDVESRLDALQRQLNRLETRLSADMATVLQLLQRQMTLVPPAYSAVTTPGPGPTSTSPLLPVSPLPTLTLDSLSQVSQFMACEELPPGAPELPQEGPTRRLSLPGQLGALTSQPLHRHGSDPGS
Chain of Voltage-gated inwardly rectifying potassium channel KCNH2 (Q12809 whole entry): as above

CLint scaled [1] | solubility kinetic [2] | Papp [3] | EC50 (Hexokinase-4 [4]) | EC50 (Hexokinase-4 [6]) | Ratio EC50 [7] | Structure (SMILES) | inhibition at 10 µM (hERG (KCNH2)) | IC50 [5]
< 8.2 mL/min/kg | 540 µM (≈ 227 µg/mL) | 15.4 ×10⁻⁶ cm/s | 331 nM |  |  | Cc1cc2c(Oc3cnc(C(=O)N(C)C)cn3)cc(C(=O)Nc3ccn(C)n3)cc2o1 | 8% | 
18.2 mL/min/kg | 24 µM (≈ 11.3 µg/mL) | 13.3 ×10⁻⁶ cm/s | 261 nM |  |  | Cc1cnc(NC(=O)c2cc(Oc3cnc(C(=O)N4CCCCC4)cn3)c3cc(C)oc3c2)cn1 | 5% | 
< 8.5 mL/min/kg | 176 µM (≈ 76.1 µg/mL) |  |  |  |  | Cc1cnc(NC(=O)c2cc(Oc3cnc(C(=O)N(C)C)cn3)c3cc(C)oc3c2)cn1 |  | 
< 9.2 mL/min/kg | 158 µM (≈ 72.8 µg/mL) | 21.8 ×10⁻⁶ cm/s | > 5000 nM |  |  | COC1CN(C(=O)c2cnc(Oc3cc(C(=O)Nc4cnccn4)cc4oc(C)cc34)cn2)C1 | 38% | 
 |  |  | > 100000 nM |  |  | Cc1cc2c(Oc3cnc(C(=O)N(C)C)cn3)cc(C(=O)Nc3ncccn3)cc2o1 | 4% | 
< 8 mL/min/kg | 344 µM (≈ 154 µg/mL) | 24.1 ×10⁻⁶ cm/s | 153 nM |  |  | CCN(C)C(=O)c1cnc(Oc2cc(C(=O)Nc3cnc(C)cn3)cc3oc(C)cc23)cn1 | 6% | 
 |  |  | 66 nM |  |  | Cc1csc(NC(=O)c2cc(Sc3nccn3C)c(F)cc2N)n1 |  | 
< 10.6 mL/min/kg | 215 µM (≈ 92.8 µg/mL) | 21.5 ×10⁻⁶ cm/s | 477 nM |  |  | Cc1ccc(NC(=O)c2cc(Oc3cnc(C(=O)N(C)C)cn3)c3cc(C)oc3c2)nc1 | 2% | 
17 mL/min/kg |  | 5.9 ×10⁻⁶ cm/s | 92 nM |  |  | Cc1cnc(NC(=O)c2cc(Oc3ccc(C(=O)N(C)C)cc3)c3cc(C)oc3c2)cn1 |  | 
21.2 mL/min/kg | 78 µM (≈ 35.8 µg/mL) | 7.7 ×10⁻⁶ cm/s | 705 nM |  |  | Cc1cc2c(Oc3cnc(C(=O)N4CC(C)(C)C4)cn3)cc(C(=O)Nc3cnccn3)cc2o1 |  | 
< 8.1 mL/min/kg | 4.5 µM (≈ 2.06 µg/mL) | 15.8 ×10⁻⁶ cm/s | 64 nM |  |  | Cc1cnc(NC(=O)c2cc(Oc3cnc(C(=O)N4CCCC4)cn3)c3cc(C)oc3c2)cn1 | 6% | 
29 mL/min/kg | 2 µM (≈ 0.769 µg/mL) | 1.5 ×10⁻⁶ cm/s | 3060 nM |  |  | Cc1cnc(NC(=O)c2cc(Oc3ccc(C#N)cc3)c3cc(C)oc3c2)cn1 |  | 4000 nM
 |  |  | 88 nM | 187 nM | < 4 | COCc1ccc(Oc2cc3[nH]c(-c4ccccn4)nc3cc2[C@H]2CCCN2C(C)=O)cn1 |  | 
12.9 mL/min/kg | 43 µM (≈ 20.3 µg/mL) | 19.9 ×10⁻⁶ cm/s | 2170 nM |  |  | Cc1cc2c(Oc3cnc(C(=O)N4CC5(COC5)C4)cn3)cc(C(=O)Nc3cnccn3)cc2o1 |  | 
10.1 mL/min/kg |  | 20.9 ×10⁻⁶ cm/s | > 5000 nM |  |  | CNC(=O)c1cnc(Oc2cc(C(=O)Nc3cnc(C)cn3)cc3oc(C)cc23)cn1 | 0% | 
